Measurements as given in patent US20240010726A1, “LFA-1 SIGNALLING MEDIATOR FOR USE IN CANCER THERAPY” (Universität Basel, priority 2020, published 2024).

Tests used:
MC38-OVA tumor cells = assay: Murine MC38-OVA tumor model, in vivo PD-1 blockade; conditions: OVA immunized mice; 3 mM MgCl2 or NaCl i.t. every third day, 8 cycles; anti-PD-1 Ab or isotype 200 μg i.p. day 9, 12, 15
Protocol: FIG. 1: Intratumoral magnesium administration improves adaptive anti-tumor immunity. (a) Schematic of experimental design. B1/6 mice, either immunized with OVA or left untreated, were inoculated subcutaneously with MC38-OVA tumor cells bilaterally on the flanks. From day 7, injection of 3 mM NaCl solution was applied in left flank tumor, whereas 3 mM MgCl2 solution was injected in contralateral tumor. This regimen was repeated every third day for a total of 8 cycles. (b) Tumor growth curves in non-immunized mice (n=20) (left panel), and immunized mice (n=19) (right panel). (c) Tumor growth curves in ±CD8 depleted mice (n=6-17). Results were pooled from 2 independent experiments, with n=6-12 mice each. (d) Absolute numbers of tumor-infiltrating CD8^+ T cells. (e) Number of tumor-infiltrating CD8^+ T cells positive for Ki67 (left panel), Granzyme B (middle panel) and CD25 (right panel). (f) Cell number of tumor-infiltrating CD8^+ T cells expressing PD-1 and Tim3. (g) Schematic of experimental design. B1/6 mice, immunized with OVA, were inoculated subcutaneously with MC38-OVA tumor cells unilaterally on the flank. From day 5, intratumoral injections of either 3 mM NaCl or 3 mM MgCl2 were initiated, and repeated every third day for 8 cycles. Mice were additionally injected with 200 μg i.p. of isotype control (IgG2a) or anti-PD-1 Ab on day 9, 12, and 15. […]

human EM CD8 T cells = assay: Metabolic flux analysis, glycolytic switch of EM CD8 T cells; format: cell-based
Protocol: FIG. 2: Extracellular magnesium promotes memory-specific activation via LFA-1. Glycolytic switch of human EM CD8 T cells (a) and naïve CD8 T cells (b) subsets upon injection of anti-CD3 Ab only, or anti-CD3 and anti-CD28 Ab, was assessed by metabolic flux analysis in medium containing either 1.2 mM Mg^2+, 0 mM Mg^2+, or medium which was reconstituted from 0 mM to 1.2 mM Mg^2+ immediately prior to activation (0→1.2 mM Mg^2+). (a) Results for human effector memory (EM) and (b) for human naïve CD8 T cells. Glycolytic switch was quantified by subtracting […] measurements. (c) Flow cytometric analysis of surface activation markers on human EM CD8 T cells 24 hours after activation by plate-bound anti-CD3 Ab and soluble anti-CD28 Ab, in 1.2 mM and 0 mM Mg^2+ media, respectively. (d) Abundance of inflammatory cytokines in corresponding EM CD8 T cell culture supernatants, determined by CBA. (e) CD11a (LFA-1) surface expression on human naïve and EM CD8 T cells as well PHA T cell blasts. Flow cytometry-based assessment of total LFA-1 expression assessed by mAb TS2/4 (f), closed conformation of αL by mAb HI111 (g), extended conformation of LFA-1 by mAb Kim127 (h), open head-piece conformation of LFA-1 by mAb m24 (i), phosphorylation of focal adhesion kinase (FAK) […] as well TNF expression (k)±TCR-induced activation in different extracellular Mg^2+ concentrations. (l) Flow cytometry-based assessment of LFA-1 with open-head piece conformation on human EM and naïve CD8 T cells using the open head-piece reporter mAb m24. (m) Assessment of glycolytic switch of EM CD8 T cells. (n) Assessment of glycolytic switch of naïve CD8 T cells. […] FIG. 4: […] Pooled results from n=6 healthy donors from 3 independent experiments. (b) CD69 expression of PHA T cell blasts upon activation with indicated concentrations of plate-bound anti-CD3 mAb in ±Mg^2+ containing medium. […] Cytotoxicity was quantified after adding luciferin to medium and measuring luminescent signal intensity. […] Cytotoxicity was quantified after adding luciferin to medium and measuring luminescent signal intensity. […]

`[Mg+2]` [Mg^2+, Magnesium] was tested, and the Host survival (MC38-OVA tumor cells) was “significantly improved animal survival”, the Tumor growth (MC38-OVA tumor cells) was “improving immune control significantly” and the “Glycolytic switch of EM CD8^+ T cells upon supra-physiologic activation” value (human EM CD8 T cells; anti-CD3/anti-CD28 Ab plus secondary cross-linking Ab, 0 mM, 1.2 mM, 0→1.2 mM Mg^2+) was “lost”. The “Glycolytic switch (ECAR) of EM CD8 T cells” value (human EM CD8 T cells; anti-CD3 or anti-CD3/anti-CD28 Ab, 0 mM vs 1.2 mM Mg^2+) was “blunted” and the “Glycolytic switch (ECAR) of EM CD8 T cells after Mg^2+ add-back” value (human EM CD8 T cells; medium reconstituted 0→1.2 mM Mg^2+ immediately prior to activation) was “fully revertible”.
